What was measured:
Format in all cases: in vivo
[1] = system: green foxtail (Setaria viridis); test: Postemergence herbicidal activity, green foxtail; conditions: rate of application 0.3 Kg/Ha, rated after 12-17 days
[2] = system: velvetleaf (Abutilon theophrasti); test: Postemergence herbicidal activity, velvetleaf; conditions: rate of application 0.3 Kg/Ha, rated after 12-17 days
[3] = system: Johnsongrass (Sorghum halepense); test: Preemergence herbicidal activity, johnsongrass; conditions: Rate of Application 0.3 Kg/Ha, examined after 12-17 days
[4] = system: soybean (Glycine max var. Winchester); test: Postemergence herbicidal activity, soybean; conditions: rate of application 0.3 Kg/Ha, rated after 12-17 days
[5] = system: Johnsongrass (Sorghum halepense); test: Postemergence herbicidal activity, johnsongrass; conditions: rate of application 0.3 Kg/Ha, rated after 12-17 days
[6] = system: common chickweed (Stellaria media); test: Postemergence herbicidal activity, chickweed; conditions: rate of application 0.3 Kg/Ha, rated after 12-17 days
[7] = system: blackgrass (Aloepecurus myosuroides); test: Preemergence herbicidal activity, blackgrass; conditions: Rate of Application 0.3 Kg/Ha, examined after 12-17 days
Protocol: The benzofused heterocyclic compounds of this invention were tested for pre- and postemergence herbicidal activity using a variety of crops and weeds. The test plants included soybean (Glycine max var. Winchester), field corn (Zea mays var. Pioneer 3732), wheat (Triticum aestivum var. Lew), morningglory (Ipomea lacunosa or Ipomea hederacea), velvetleaf (Abutilon theophrasti), green foxtail (Setaria viridis), Johnsongrass (Sorghum halepense), blackgrass (Aloepecurus myosuroides), common chickweed (Stellaria media), and common cocklebur (Xanthium strumarium L.).
For preemergence testing, two disposable fiber flats (8 cm×15 cm×25 cm) for each rate of application of each candidate herbicide were filled to an approximate depth of 6.5 cm with steam-sterilized sandy loam soil. The soil was leveled and impressed with a template to provide five evenly spaced furrows 13 cm long and 0.5 cm deep in each flat. Seeds of soybean, wheat, corn, green foxtail, and johnsongrass were planted in the furrows of the first flat, and seeds of velvetleaf, morningglory, common chickweed, cocklebur, and blackgrass were planted in the furrows of the second flat. The five-row template was employed to firmly press the seeds into place. A topping soil of equal portions of sand and sandy loam soil was placed uniformly on top of each flat to a depth of approximately 0.5 cm. Flats for postemergence testing were prepared in the same manner except that they were planted 9-14 days prior to the preemergence flats and were placed in a greenhouse and watered, thus allowing the seeds to germinate and the foliage to develop.
In both pre- and postemergence tests, a stock solution of the candidate herbicide was prepared by dissolving 0.27 g of the compound in 20 mL of water/acetone (50/50) containing 0.5% v/v sorbitan monolaurate. For an application rate of 3000 g/ha of herbicide a 10 mL portion of the stock solution was diluted with water/acetone (50/50) to 45 mL.
The preemergence flats were initially subjected to a light water spray. The four flats were placed two by two along a conveyor belt (i.e., the two preemergence followed by the two postemergence flats). The conveyor belt fed under a spray nozzle mounted about ten inches above the post-emergent foliage. The preemergent flats were elevated on the belt so that the soil surface was at the same level below the spray nozzle as the foliage canopy of the postemergent plants. The spray of herbicidal solution was commenced and once stabilized, the flats were passed under the spray at a speed to receive a coverage equivalent of 100 L/ha. At this coverage the application rates are those shown in the above table for the individual herbicidal solutions. The preemergence flats were watered immediately thereafter, placed in the greenhouse and watered regularly at the soil surface. The postemergence flats were immediately placed in the green-house and not watered until 24 hours after treatment with the test solution. Thereafter they were regularly watered at ground level. After 12-17 days the plants were examined and the phytotoxicity data were recorded.
Phytotoxicity data were taken as percent control. Percent control was determined by a method similar to the 0 to 100 rating system disclosed in “Research Methods in Weed Science,” 2nd ed., B. Truelove, Ed.; Southern Weed Science Society; Auburn University, Auburn, Ala., 1977.

[8] = system: velvetleaf (Abutilon theophrasti); test: Preemergence herbicidal activity, velvetleaf; conditions: Rate of Application 0.3 Kg/Ha, examined after 12-17 days
[9] = system: soybean (Glycine max var. Winchester); test: Preemergence herbicidal activity, soybean; conditions: Rate of Application 0.3 Kg/Ha, examined after 12-17 days
[10] = system: morningglory (Ipomea lacunosa or Ipomea hederacea); test: Postemergence herbicidal activity, morningglory; conditions: rate of application 0.3 Kg/Ha, rated after 12-17 days
[11] = system: wheat (Triticum aestivum var. Lew); test: Preemergence herbicidal activity, wheat; conditions: Rate of Application 0.3 Kg/Ha, examined after 12-17 days
[12] = system: common chickweed (Stellaria media); test: Preemergence herbicidal activity, chickweed; conditions: Rate of Application 0.3 Kg/Ha, examined after 12-17 days
[13] = system: morningglory (Ipomea lacunosa or Ipomea hederacea); test: Preemergence herbicidal activity, morningglory; conditions: Rate of Application 0.3 Kg/Ha, examined after 12-17 days
[14] = system: wheat (Triticum aestivum var. Lew); test: Postemergence herbicidal activity, wheat; conditions: rate of application 0.3 Kg/Ha, rated after 12-17 days
[15] = system: field corn (Zea mays var. Pioneer 3732); test: Preemergence herbicidal activity, corn; conditions: Rate of Application 0.3 Kg/Ha, examined after 12-17 days
[16] = system: field corn (Zea mays var. Pioneer 3732); test: Postemergence herbicidal activity, corn; conditions: rate of application 0.3 Kg/Ha, rated after 12-17 days
[17] = system: common cocklebur (Xanthium strumarium L.); test: Postemergence herbicidal activity, cocklebur; conditions: rate of application 0.3 Kg/Ha, rated after 12-17 days
[18] = system: green foxtail (Setaria viridis); test: Preemergence herbicidal activity, green foxtail; conditions: Rate of Application 0.3 Kg/Ha, examined after 12-17 days
[19] = system: common cocklebur (Xanthium strumarium L.); test: Preemergence herbicidal activity, cocklebur; conditions: Rate of Application 0.3 Kg/Ha, examined after 12-17 days

Compound | Postemergence herbicidal activity (% control) SETVI [1] [%] | Postemergence herbicidal activity (% control) ABUTH [2] [%] | PREEMERGENCE HERBICIDAL ACTIVITY (% CONTROL) SORHA [3] [%] | Postemergence herbicidal activity (% control) SOY [4] [%] | Postemergence herbicidal activity (% control) SORHA [5] [%] | Postemergence herbicidal activity (% control) STEME [6] [%] | PREEMERGENCE HERBICIDAL ACTIVITY (% CONTROL) ALOMY [7] [%] | PREEMERGENCE HERBICIDAL ACTIVITY (% CONTROL) ABUTH [8] [%] | PREEMERGENCE HERBICIDAL ACTIVITY (% CONTROL) SOY [9] [%] | Postemergence herbicidal activity (% control) IPOSS [10] [%] | PREEMERGENCE HERBICIDAL ACTIVITY (% CONTROL) WHT [11] [%] | PREEMERGENCE HERBICIDAL ACTIVITY (% CONTROL) STEME [12] [%] | PREEMERGENCE HERBICIDAL ACTIVITY (% CONTROL) IPOSS [13] [%] | Postemergence herbicidal activity (% control) WHT [14] [%] | PREEMERGENCE HERBICIDAL ACTIVITY (% CONTROL) CRN [15] [%] | Postemergence herbicidal activity (% control) CRN [16] [%] | Postemergence herbicidal activity (% control) XANPE [17] [%] | PREEMERGENCE HERBICIDAL ACTIVITY (% CONTROL) SETVI [18] [%] | PREEMERGENCE HERBICIDAL ACTIVITY (% CONTROL) XANPE [19] [%]
Cn1c(C(F)(F)F)cc(=O)n(-c2c(F)cc(Br)c3oc(COc4ccccc4)nc23)c1=O [Compound 99] | 70 | 100 | 65 | 80 | 65 | 95 | 60 | 100 | 40 | 100 | 50 | 100 | 100 | 40 | 60 | 80 | 70 | 100 | –
CC(=O)N(C(C)=O)c1nc2c(-n3c(=O)cc(C(F)(F)F)n(C)c3=O)c(F)cc(Br)c2o1 [Compound 100] | 30 | 90 | 70 | 85 | 40 | 50 | 60 | 100 | 40 | 100 | 30 | 20 | 100 | 40 | 80 | 60 | 50 | 50 | –
CC(=O)OC(C)c1cc2c(Cl)cc(F)c(-n3c(=O)cc(C(F)(F)F)n(C)c3=O)c2o1 (stereo not drawn) [Compound 246] | 100 | 100 | 100 | 95 | 100 | 100 | 100 | 100 | 100 | 100 | 100 | 100 | 100 | 100 | 100 | 100 | 100 | 100 | 100
CC(OC(=O)c1ccccc1)c1cc2c(Cl)cc(F)c(-n3c(=O)cc(C(F)(F)F)n(C)c3=O)c2o1 (stereo not drawn) [Compound 248] | 100 | 100 | 100 | 80 | 100 | 100 | 95 | 100 | 100 | 100 | 90 | 100 | 100 | 50 | 95 | 95 | 100 | 100 | 100
Cn1c(C(F)(F)F)cc(=O)n(-c2c(F)cc(Cl)c3[nH]c(C(F)F)nc23)c1=O [Compound 364] | 100 | 100 | 80 | 95 | 100 | 100 | 80 | 100 | 100 | 100 | 60 | 100 | 100 | 40 | 80 | 80 | 100 | 100 | 100

Source: patent US6352958B1, “Cycloimido-substituted benzofused heterocyclic herbicides” (FMC Corporation, priority 1997, dated 2002)
